{"source": "patent US12616706B2", "about": "“Compositions and methods of use comprising substances with neural plasticity actions administered at non-psychedelic/psychotomimetic dosages and formulations” (Arbormentis LLC, priority 2019, dated 2026)", "key": {"[1]": {"test": "Body and liver weight at sacrifice, mice", "assay_type": "in vivo, mouse", "conditions": "0.05 mg/kg daily", "method": "(§1) Mice were fed with standard diet and fructose (30% w/v in drinking water) was added to their diet 4 days before randomization."}, "[2]": {"system": "NMDAR2B", "test": "NMDAR2B protein expression in ARPE-19 cells (immunofluorescence)", "assay_type": "cell-based", "conditions": "chronic treatment with psilocin carbamate for 96 hours", "method": "(§2) First, the present inventors assessed the expression of three NMDAR subunits (NMDAR1, NMDAR2A, NMDAR2B) and two 5-HT2 subtypes (5-HT2A, 5-HT2C) by immunofluorescence coupled to confocal microscopy. 7,500 cells/well were plated in a 24-well plate on sterile glass coverslips. The next day, the immunofluorescence analysis was performed. The following primary antibodies were used: anti-NMDAR1A (Abcam, ab68144), NMDAR2A (Bioss, bs-3507R-TR), NMDAR2B (Bioss, bs-0222R-TR), 5-HT2A (Bioss, bs-12049R), 5-HT2C (Bioss, 2959R), and the secondary antibody goat anti-rabbit IgG (GeneTex, GTX213110-04). The images of the immunostained cells were acquired by means of a confocal microscope Zeiss LSM 800, using a 63× magnification and can be seen in FIGS. 9A-9E. ImageJ software was used to quantify the intensity of the fluorescent signal.\n(§3) 7,500 cells/well were plated in a 24-well plate on sterile glass coverslips. […] After 6 days an immunofluorescence analysis coupled to confocal microscopy was performed with the primary and secondary antibodies described above."}, "[3]": {"system": "NMDAR2A", "test": "NMDAR2A protein expression in ARPE-19 cells (immunofluorescence)", "assay_type": "cell-based", "conditions": "chronic treatment with psilocin carbamate for 96 hours", "method": "as §2, §3"}, "[4]": {"system": "c57BL/6 male mice", "test": "Toxicity and tolerability observation, high fructose mice", "assay_type": "in vivo, mouse", "conditions": "young", "method": "as §1\nDuring the experiment, the animals were carefully monitored every day for a period not exceeding the maximum experimental endpoints. Access to water (30% w/v fructose) and food ad libitum was allowed. No obvious clinical symptoms were observed during the experimental period."}, "[5]": {"system": "PSD95", "test": "PSD95 protein expression in lateral cortex (Western blot)", "assay_type": "in vivo, mouse", "conditions": "not significant", "method": "(§4) Mice were euthanized by cervical dislocation. Immediately after the sample, fresh tissues were cut isolating 4 brain regions (cerebellum, lateral cortex, olfactory bulb, and the remaining brain), quickly collected and put in cryovials in liquid nitrogen and then kept at −80° C.\n(§5) Brain tissues were lysed in RIPA lysis buffer (Invitrogen) and 1% (v/v) protease and phosphatase inhibitor cocktail (Sigma). Proteins were extracted by centrifugation at 14000 rpm at 4° C. for 30 minutes. Bicinchoninic Acid Assay (BCA) kit (1113 catalog #23225 Thermo-Scientific) was used to determine the protein concentration following the manufacturer's instructions. Western blot analyses to determine NMDAR 1 (primary antibody: Abcam, ab68144), PSD95 (Bioss, bs-0179R-TR), p70 (Bioss, bs-3498R-TR) and synapsin 1 (Bioss, bs-3501 R-TR) protein expression were performed using 30 μg per lane of nuclear or lateral cortex lysates. SDS-PAGE was performed on 8% polyacrylamide gels in reducing-denaturing condition and proteins were transferred to a 0.45 μm nitrocellulose membrane (BioRad Laboratories). Signal intensity of immunoreactive bands was analyzed by the Quantity One software (Bio-Rad Laboratories S.r.l.) and was normalized to that of the loading control GAPDH."}, "[6]": {"test": "Blood glucose after 2-hours fasting, mice", "assay_type": "in vivo, mouse", "conditions": "0.05 mg/kg daily", "method": "as §1\nBefore sacrifice, the present inventors measured the blood glucose concentration of the mice after a 2-hours fasting."}, "[7]": {"system": "p70", "test": "p70 protein expression in lateral cortex (Western blot)", "assay_type": "in vivo, mouse", "conditions": "not detected in adult mice", "method": "as §4, §5"}, "[8]": {"system": "NMDAR1", "test": "NMDAR1 protein expression in lateral cortex (Western blot)", "assay_type": "in vivo, mouse", "conditions": "0.05 mg/kg daily", "method": "as §4, §5"}, "[9]": {"system": "c57BL/6 male mice", "test": "Locomotion Activity Test (LMA), mice", "assay_type": "in vivo, mouse", "conditions": "chronic (14 day) low dose 0.05 mg/Kg", "method": "In order to ascertain whether the chronic administration of low dose psilocin-carbamate alters behavior in tested mice, the present inventors performed the Locomotion Activity Test (LMA), the Novelty Suppressed Feeding (NSF) test and the olfactory habitation/dishabituation test before and after the psilocin-carbamate treatment.\n(§6) LMA has the aim of assessing spontaneous locomotor activity in laboratory animals. This test is performed in a gray arena (open field) exposed to light of regulated intensity (24 and 30 lux), avoiding light-shadow zones within the perimeter in which the experiment takes place. Along the base of the open field, 4 standard sized squares have been drawn, clearly visible even in the dark and large enough to allow the animal to remain inside them in all its length. The LMA test has been preceded by one hour of habituation, at the end of which the rat was inserted inside the open field, in one of the previously designed squares. The movements and behaviors in reaction to the environment were then recorded for 10 minutes.\nThree fundamental aspects were assessed: 1. the number of crossings, i.e., the number of crossings made by the animal from one square to another, passing the line defining it with both legs. […]"}, "[10]": {"system": "synapsin 1", "test": "Synapsin 1 protein expression in lateral cortex (Western blot)", "assay_type": "in vivo, mouse", "conditions": "adult mice; not significant", "method": "as §4, §5"}, "[11]": {"conditions": "psilocybin 10, 20, 30 mg; cited from earlier work"}, "[12]": {"design": "AUC: unit not given beside the values", "conditions": "cited from earlier work"}, "[13]": {"system": "Ki67 positive cells in the subventricular zone", "test": "Neurogenesis in SVZ, Ki67 positive cells", "assay_type": "in vivo, rat", "conditions": "WD rats, 0.05 mg/Kg gastric gavage 15 days; WD 2722±225, SD 4601±17", "method": "Methods: To perform immunohistochemistry, rats were euthanized and then perfused with 0.9% saline followed by 4% paraformaldehyde (PFA) in 1× phosphate saline buffer (PBS) (rats n tot=8, n=2 for each condition). Rats brains were promptly dissected and then post-fixed in 4% PFA for 48 hours. Brains were embedded in 2.5% agarose (Sigma-Aldrich) and then sectioned in sagittal sections (40 μm thick) at the vibratome (Vibratome VT1000S, Leica). Sagittal brain sections including the subventricular zone, were treated with a blocking solution of 10% normal goat serum (Jackson ImmunoResearch) in 1×PBS for 1 hour and then stained with rabbit anti-Ki67 monoclonal antibody (Abcam, AB 16667) (1:200) overnight. […] Brain sections were mounted with Aqua-Poly/Mount (Polysciences). Images of the sagittal sections containing the subventricular zone were acquired at the confocal microscope (Zeiss LSM 700) equipped with an EC Plan-Neofluar 20×/0.50 M27 objective (Zeiss). Ki67 positive cells were counted along the lateral wall of the lateral ventricles in rat brain sagittal sections, using ImageJ software (RRID: nif-000030467)."}, "[14]": {"system": "Western Diet fed rats", "test": "Locomotion Activity Test (LMA), WD rats", "assay_type": "in vivo, rat", "conditions": "chronic (15 day) low dose 0.05 mg/Kg", "method": "as §6, with “In order to ascertain whether the chronic administration of low dose psilocybin alters behavior in WD fed rats, the present inventors performed the Locomotion Activity Test (LMA) before and after the psilocybin treatment (see FIGS. 7A-7C). This test has” for “LMA has”\nIn the LMA test, three fundamental aspects were assessed: 1. the number of crossings, i.e., the number of crossings made by the animal from one square to another, passing the line defining it with both legs. This value gives an indication of the distance traveled by the animal during the test and of its locomotor activity; 2. the number of rearings, i.e, the number of times the animal lifts up on the two posterior legs. […]"}, "[15]": {"system": "Western Diet fed rats", "test": "Liver histology (hematoxylin-eosin), hepatic steatosis", "conditions": "WD rats, 0.05 mg/kg 15 days; median (range in next column); WD alone 15"}}, "note": "Where two headings read alike, the source gives them in different places."}
{"smiles": "CC[C@H](C)[C@H](NC(=O)Oc1cccc2[nH]cc(CCN(C)C)c12)C(=O)O", "note": "[psilocin-carbamate]", "values": [{"measurement": "Liver weight at sacrifice", "setting": "[1]; adult mice", "value": "decrease"}, {"measurement": "Body weight at sacrifice", "setting": "[1]; adult mice, p<0.05", "value": "decrease"}, {"measurement": "Body and liver weight", "setting": "[1]; young mice", "value": "no effect"}, {"measurement": "NMDAR2B expression", "setting": "[2]", "value": "reduction"}, {"measurement": "NMDAR2A expression", "setting": "[3]", "value": "reduction"}, {"measurement": "Safety and tolerability", "setting": "[4]; 0.05 mg/kg daily for 14 days, adult and old mice", "value": "safe and well-tolerated"}, {"measurement": "Signs of toxicity and mortality", "setting": "[4]; adult, old mice, 0.05 mg/kg gastric gavage, 14 days", "value": "No signs of toxicity and no mortality"}, {"measurement": "PSD95 protein expression, lateral cortex", "setting": "[5]; adult mice, tendency", "value": "decrease"}, {"measurement": "PSD95 protein expression, lateral cortex", "setting": "[5]; young mice", "value": "tended to increase"}, {"measurement": "Blood glucose control", "setting": "[6]; mice", "value": "no effect"}, {"measurement": "Blood glucose concentration", "setting": "[6]; old mice", "value": "tendency towards a lower blood glucose concentration"}, {"measurement": "p70 protein expression, lateral cortex", "setting": "[7]", "value": "no significant differences"}, {"measurement": "NMDAR1 protein expression, lateral cortex", "setting": "[8]; adult mice", "value": "tended to decrease"}, {"measurement": "NMDAR1 protein expression, lateral cortex", "setting": "[8]; young and old mice", "value": "tended to increase"}, {"measurement": "Psychedelic behavioral effects", "setting": "[9]", "value": "no evidence of psychedelic behavioral effects"}, {"measurement": "Synapsin 1 protein expression, lateral cortex", "setting": "[10]", "value": "tended to increase"}]}
{"smiles": "CN(C)CCc1c[nH]c2cccc(OP(=O)(O)O)c12", "note": "[psilocybin]", "values": [{"measurement": "Psychomotor performance, working memory, episodic memory, associative learning, visual perception", "setting": "[11]", "value": "dose-dependent negative effects"}, {"measurement": "AUC", "setting": "[12]; 1 mg IV psilocybin", "value": "240+−55"}, {"measurement": "Cmax", "setting": "[12]; 1 mg IV psilocybin", "value": "12.9+−5.6 ng/ml"}, {"measurement": "AUC", "setting": "[12]; oral psilocybin 10-20 mg", "value": "1963+−659"}, {"measurement": "Cmax", "setting": "[12]; oral psilocybin 10-20 mg", "value": "8.2+−2.8 ng/ml"}, {"measurement": "Tmax", "setting": "[12]; oral psilocybin 10-20 mg", "value": "105+−37 min"}, {"measurement": "New cells (Ki67 positive) in SVZ, n", "setting": "[13]", "value": "3404±199"}, {"measurement": "Psychedelic behavioral effects", "setting": "[14]", "value": "no evidence of psychedelic behavioral effects"}, {"measurement": "% Hepatic macrovescicular steatosis", "setting": "[15]", "value": 5, "unit": "%"}]}
